In paper PMC5979466, “Allosteric Activation of GDP-Bound Ras Isoforms by Bisphenol Derivative Plasticisers” (International Journal of Molecular Sciences, 2018):
Read-outs that look alike come from different tables or passages of the source. Values belong to the molecule of their own block, whether it stands above or below them.

Columns and labels:
[1] = biological target: T1, K-Ras4B bound to GDP (Homo sapiens, UniProt P01116); assay: NMR titration (1H-15N HSQC chemical shift perturbation) of GDP-bound K-Ras4B; format: binding
T1 construct: made in house; host or cells: E. coli
Protocol: The NMR titration experiments, resonance assignments, and data handling were performed as previously published. Spectra were acquired on Bruker DRX 600 and AVANCE III HD 700 spectrometers, except for ^19F NMR spectra that were recorded on a Bruker DPX 250 spectrometer at 235 MHz. The reference experiment for the competitive titration of ^14N SOS^cat and BPAF to ^15N-enriched GDP-bound K-Ras4B was acquired in the presence of 0.2 mM BPAF in PBS at pH 7.4.

[2] = tested on: Hela cells; assay: MTT cytotoxicity assay; format: cell-based; conditions: Homo sapiens, Hela cells exposed for 72 hrs
Protocol: Hela cells were used to determine IC50 values for different bisphenols. Therefore cells (1100 cells/well) were seeded in 96 well plates. 24 h after seeding cells were treated with individual bisphenols or corresponding DMSO in indicated concentrations up to 72 h. Subsequently, 10 μL of a MTT stock solution (5 mg/mL) were added to each well for 4 h. The mixture was removed carefully via pipetting, and the remaining formazan crystals formed were dissolved by 100 μL DMSO/10% SDS/0.01 M acetic acid for 15 min. The absorbance (570 nm and reference 620 nm) was determined using an absorbance reader and blank values were subtracted. Prism 6 (GraphPad Software, La Jolla, CA, USA) was used to calculate IC50 values.

[3] = biological target: T2, K-Ras4B (Homo sapiens, UniProt P01116); set-up: made in house; host or cells: E. coli (given for K-Ras4B only); method as in PMID 26867649; conditions: cited from earlier work
[4] = biological target: T3, GDP-bound K-Ras4B (Homo sapiens, UniProt P01116); assay: Shift of Y157 amide NMR resonance towards active GppNHp-bound state; format: binding; conditions: saturated ligand-protein complex
T3 construct: made in house; host or cells: E. coli
Protocol: (§1) The NMR titration experiments, resonance assignments, and data handling were performed as previously published. Spectra were acquired on Bruker DRX 600 and AVANCE III HD 700 spectrometers, except for ^19F NMR spectra that were recorded on a Bruker DPX 250 spectrometer at 235 MHz. The reference experiment for the competitive titration of ^14N SOS^cat and BPAF to ^15N-enriched GDP-bound K-Ras4B was acquired in the presence of 0.2 mM BPAF in PBS at pH 7.4. Upon titration of ^14N SOS^cat to a 0.4 mM sample of GDP-bound ^15N-enriched K-Ras4B, line broadening and/or disappearance of NMR resonances for GDP-loaded K-Ras4B bound to SOS^cat is observed probably due to rotational correlation effects of the approx. 80 kDa protein-protein complex. Line broadening can already be detected in 2D ^1H-^15N HSQC spectra of ^14N SOS^cat:^15N-enriched GDP-bound K-Ras4B at a molar ratio of 1:1, and this effect is more pronounced when extra SOS^cat is added to adjust a molar ratio of 1:2. Addition of an increasing amount of BPAF to the 1:2 ^15N-enriched K-Ras4B/^14N SOS^cat complex (1:2:0.5, 1:2:1, 1:2:4) recovers the backbone amide proton NMR resonances in 2D ^1H-^15N HSQC spectra. The acquired NMR spectrum is similar to the ^15N-enriched GDP-bound K-Ras4B:BPAF ^1H-^15N HSQC spectrum.

[5] = tested on: ERK; assay: Western blot of ERK phosphorylation (pERK/total ERK); format: cell-based; conditions: serum-starved HEK293T cells, BPAF 20 µM, BPNH2 33 µM
Protocol: (§2) G-LISA Ras activation assay was performed as described before. Briefly, HEK293T cells were seeded in 10-cm dishes followed by overnight incubation and afterwards serum-starved for 16 h. Cells were then treated with individual bisphenols (BPAF [20 µM] and BPNH2 [33 µM]) or DMSO (control, Ctrl) in a time-dependent manner (1, 2, 4 h), subsequently lysed and the protein concentration was determined using Precision RedTM Advanced Protein Assay Reagent. Quantitative analysis of active Ras was performed with a G-LISA Ras activation assay (Cytoskeleton, Inc., Denver CO, USA) using 1 mg/mL of the sample. The signal intensity was determined by measuring absorbance at 490 nm using a microplate spectrophotometer. Additionally, these lysates were subjected to western blot analysis in order to determine the activation of ERK and AKT signalling. To test for statistical significance, a two-tailed Student’s t-test was applied using Prism version 5.0 (GraphPad Software, La Jolla, CA, USA).

[6] = biological target: T4, N-Ras (1-170) (Homo sapiens, UniProt P01111); assay: NMR-based titration of N-Ras; format: binding
T4 construct: For N-Ras (1-170), we also observed a similar pattern of CSPs; made in house

[7] = biological target: T5, GDP-bound K-Ras4B/SOS^cat complex (Homo sapiens, UniProt P01116); assay: Competitive NMR titration of 15N K-Ras4B with 14N SOScat and ligand; format: binding; conditions: BPAF added to 1:2 K-Ras4B/SOScat complex, recovery of resonances
T5 construct: made in house; host or cells: E. coli (given for K-Ras4B only)
Protocol: as §1

[8] = biological target: T6, Rap-1A (Homo sapiens, UniProt P62834); assay: NMR titration of Rap-1A; format: binding; conditions: up to a BPAF concentration of 5 mM
T6 construct: Rap1A comprising residues 1–170 were expressed in E. coli; made in house; host or cells: E. coli
T6 sequence (P62834 1-170): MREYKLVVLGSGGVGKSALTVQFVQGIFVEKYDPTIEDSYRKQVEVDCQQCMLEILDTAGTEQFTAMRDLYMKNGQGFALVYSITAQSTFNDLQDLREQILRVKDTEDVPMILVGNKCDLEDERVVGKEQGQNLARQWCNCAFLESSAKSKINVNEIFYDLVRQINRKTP

[9] = tested on: Ras; assay: G-LISA Ras activation assay; format: cell-based; conditions: serum-starved HEK293T cells, BPAF 20 µM, 1, 2, 4 h
Protocol: as §2

[10] = tested on: AKT kinase; assay: Western blot of AKT phosphorylation (pAKT/total AKT); format: cell-based; conditions: serum-starved HEK293T cells, BPAF 20 µM, BPNH2 33 µM
Protocol: as §2

[11] = biological target: T2, K-Ras4B; assay: GDI (guanine nucleotide dissociation inhibition) assay with mantGppNHp; format: biochemical; set-up: made in house; host or cells: E. coli
Protocol: (§3) The SOS^cat assay was performed as described. Briefly, a solution of 1 µM Ras*mantGDP, 200 µM GDP was mixed with different concentrations of BPNH2 and incubated at 20 °C for 5–10 min. To prevent insolubility of the BPNH2, 5% v/v DMSO was applied. After adding 0.5 µM of SOS^cat, a fluorescence spectrum was recorded with a Perkin Elmer LS50B instrument applying an excitation wavelength of 366 nm and an emission wavelength of 442 nm. The kobs value describing the dissociation rate of the nucleotide is obtained for each BPNH2 concentration from a single exponential fit to the fluorescence time course. The GDI (guanine nucleotide dissociation inhibitor) assay is carried out similar to the SOS^cat assay: Instead of mantGDP, the non-hydrolysable GTP analogue mantGppNHp is used but no SOS^cat is added here. Again, the dissociation of the fluorescent nucleotide from Ras in the presence of various BPNH2 concentrations is detected by the decrease of fluorescence and the time dependence yields the kobs values. A plot of the kobs values versus BPNH2 concentration fitted by a binding isotherm yields the KD value of the BPNH2 complex (Figure 4 and Figure S7).
Supporting Figure 7. GDI assay carried out in triplicate (black, red, green; upper panel): The GDI (guanine nucleotide dissociation inhibitor) assay is carried out similar to the SOScat assay: Instead of mantGDP, the non-hydrolysable GTP analogue mantGppNHp is used but no SOScat is added here. Again, the dissociation of the fluorescent nucleotide from Ras in the presence of various
BPNH2 concentrations is detected by the decrease of fluorescence and the time dependence yields the kobs values. A plot of the kobs values versus BPNH2 concentration fitted by a binding isotherm yields the KD value of the BPNH2 complex (please also refer to […]
MTT cytotoxicity assay (lower four panels): The IC50 values in Hela cells exposed for 72 hrs to BPs were determined as follows: 53.79 […]
(1 picture or pasted object on this page, not shown here)

[12] = biological target: T2, K-Ras4B; assay: SOScat-catalysed guanine nucleotide exchange assay (mant-GDP fluorescence); format: biochemical; set-up: made in house; host or cells: E. coli (given for K-Ras4B only)
Protocol: as §3

[13] = biological target: T7, H-Ras (Homo sapiens, UniProt P01112); assay: NMR-based titration of H-Ras; format: binding
T7 construct: made in house; host or cells: E. coli

[14] = Solubility of the ligands in the NMR study; conditions: NMR study samples
[15] = biological target: T1, K-Ras4B bound to GDP; conditions: NMR titration, cited from earlier work
[16] = NMR titration, GDP-bound 15N-enriched K-Ras4B

SMILES: Oc1ccc(C(F)(F)F)cc1 [AFX, 4-(Trifluoromethyl)phenol, reference compound]
Kd [1, 16]: > 50000 µM

SMILES: CC(C)(c1ccc(O)cc1)c1ccc(O)cc1 [BPA, 2,2-Bis(4-hydroxyphenyl)propane]
IC50 [2]: 53.8 µM
interference with GEF (Sos)-mediated nucleotide exchange from GDP to GTP [3]: can interfere
shift of Y157 amide resonance relative to the frequency in the active GppNHp-bound state [4]: 49%

SMILES: Oc1ccc(C(c2ccc(O)cc2)(C(F)(F)F)C(F)(F)F)cc1 [BPAF, 2,2-Bis(4-hydroxyphenyl)hexafluoropropane]
level of ERK phosphorylation / Ras signalling via c-Raf kinase [5]: increased the level of ERK phosphorylation
Kd [6]: 770 ± 20 µM
antagonism of the interaction between GDP-bound K-Ras4B and SOScat [7]: can antagonise
chemical shift perturbations (CSPs) on titration [8]: could not be detected
Ras activity (G-LISA) [9]: significant and time-dependent augmentation of Ras activity
level of phosphorylated AKT kinase (pAKT) [10]: slightly elevated levels of phosphorylated AKT kinase (pAKT) after 2 h
IC50 [2]: 17.8 µM
GDI-effect (inhibition of nucleotide dissociation) [11]: no or only a very small effect
interference with the SOScat mediated nucleotide exchange [12]: interfere
Kd [1, 16]: 350 ± 20 µM
Kd ([1]; calculated from six binding pocket residues (L6, V9, Y40, L56, T74, G75), Fig. S1): 347 ± 5 µM
Kd [13]: 400 ± 20 µM
shift of Y157 amide resonance relative to the frequency in the active GppNHp-bound state [4]: 58%

SMILES: CC(c1ccccc1)(c1ccc(O)cc1)c1ccc(O)cc1 [BPAP, 4,4′-(1-Phenylethylidene)bisphenol]
solubility comment [14]: insoluble

SMILES: Oc1ccc(C(c2ccccc2)(c2ccccc2)c2ccc(O)cc2)cc1 [BPBP, Bis(4-hydroxyphenyl)diphenylmethane]
solubility comment [14]: insoluble

SMILES: O=S(=O)(c1ccc(O)cc1)c1ccc(O)cc1 [BPS, 4,4′-Sulfonyldiphenol]
Kd ([15]; listed as S): 6000 ± 700 µM
Kd [15]: 5800 µM
IC50 [2]: 119 µM
interference with GEF (Sos)-mediated nucleotide exchange from GDP to GTP [3]: cannot interfere
shift of Y157 amide resonance relative to the frequency in the active GppNHp-bound state [4]: 20%

Second part, led by results:

Kd [1, 16]: 3600 µM
SMILES: CCC(C)(c1ccc(O)cc1)c1ccc(O)cc1 [BPB, 2,2-Bis(4-hydroxyphenyl)butane]

Kd [1, 16]: 6500 µM
SMILES: CC(c1ccc(O)cc1)c1ccc(O)cc1 [BPE, 1,1-Bis(4-hydroxyphenyl)ethane]

Kd [1, 16]: 14000 µM
SMILES: Oc1ccc(Cc2ccc(O)cc2)cc1 [BPF, 4,4′-Methylenediphenol]

solubility comment [14]: insoluble
SMILES: Oc1ccc(C2(c3ccc(O)cc3)c3ccccc3-c3ccccc32)cc1 [BPFL, 4,4′-(9-Fluorenylidene)diphenol]

GDI-effect (inhibition of nucleotide dissociation) [11]: significant GDI-effect
Kd ([11]; mantGppNHp, no SOScat, triplicate, read-out: KD from GDI-assay): 340 ± 20 µM
interference with the SOScat mediated nucleotide exchange [12]: interfere
Kd ([12]; kobs of mGDP dissociation versus ligand concentration, 0.5 µM SOScat, 20 °C, 5% DMSO, read-out: KD from SOScat-assay): 200 ± 100 µM
Kd [1, 16]: 400 µM
shift of Y157 amide resonance relative to the frequency in the active GppNHp-bound state [4]: approx. 64%
SMILES: Nc1cc(C(c2ccc(O)c(N)c2)(C(F)(F)F)C(F)(F)F)ccc1O [BPNH2, 2,2-Bis(3-amino-4-hydroxyphenyl)hexafluoropropane]
level of ERK phosphorylation / Ras signalling via c-Raf kinase [5]: failed to activate
level of phosphorylated AKT kinase (pAKT) [10]: clearly be detected already after 1 h
IC50 [2]: 33 µM
